Where two headings read alike, the source gives them in different places.
How the values were obtained:
Tyk2 kinase domain (DH1) = Tyk2 kinase domain (DH1) (Homo sapiens (Human), UniProt P29597); assay: Tyk2 Radioactive Kinase Assay; assay type: biochemical; conditions: for inhibition at 10 µM: read-out: Tyk2 JH1% Inhibition @ 10 μM
In short: (§1)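 Read-out is percent inhibition from a radioactive kinase reaction, measured with compound at 10 μM.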

[1] = molecular target: human TYK2 (JH2domain-pseudokinase) (Homo sapiens (Human), UniProt P29597); assay: TYK2 JH2 Domain Binding Assay (KINOMEscan)
Chain of human TYK2 (JH2domain-pseudokinase) (P29597 556-888): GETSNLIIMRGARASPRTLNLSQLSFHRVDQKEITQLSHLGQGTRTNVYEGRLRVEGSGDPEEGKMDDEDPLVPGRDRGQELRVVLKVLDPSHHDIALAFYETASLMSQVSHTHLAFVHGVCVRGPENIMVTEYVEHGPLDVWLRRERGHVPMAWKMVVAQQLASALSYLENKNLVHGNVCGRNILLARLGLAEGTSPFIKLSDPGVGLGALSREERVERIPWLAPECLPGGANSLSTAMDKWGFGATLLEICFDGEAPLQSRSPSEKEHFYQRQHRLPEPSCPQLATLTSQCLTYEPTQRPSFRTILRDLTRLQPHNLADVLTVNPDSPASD
In short: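 Pseudokinase domain binding was measured by qPCR of tagged, bead-retained kinase after 1 h room-temperature competition, with 0.9% DMSO and compound up to 30,000 nM in 3-fold steps. Hill-equation Kd, duplicate.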

JAK2 kinase domain (JH1) = JAK2 kinase domain (JH1) (Homo sapiens (Human), UniProt O60674); assay: JAK2 Radioactive Kinase Assay; assay type: biochemical; conditions: for inhibition at 10 µM: read-out: JAK2 JH1% Inhibition @ 10 μM
Chain of JAK2 kinase domain (JH1) (O60674 849-1124): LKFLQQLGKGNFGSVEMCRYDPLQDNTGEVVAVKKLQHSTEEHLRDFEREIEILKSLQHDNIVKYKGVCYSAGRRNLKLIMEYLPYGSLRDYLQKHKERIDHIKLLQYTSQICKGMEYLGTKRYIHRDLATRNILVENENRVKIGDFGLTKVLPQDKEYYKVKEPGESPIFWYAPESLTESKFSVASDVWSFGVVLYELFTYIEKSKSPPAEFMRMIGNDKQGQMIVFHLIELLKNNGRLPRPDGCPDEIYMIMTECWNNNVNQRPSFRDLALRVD
In short: as §1

Chain of Tyk2 kinase domain (DH1) (P29597 897-1176): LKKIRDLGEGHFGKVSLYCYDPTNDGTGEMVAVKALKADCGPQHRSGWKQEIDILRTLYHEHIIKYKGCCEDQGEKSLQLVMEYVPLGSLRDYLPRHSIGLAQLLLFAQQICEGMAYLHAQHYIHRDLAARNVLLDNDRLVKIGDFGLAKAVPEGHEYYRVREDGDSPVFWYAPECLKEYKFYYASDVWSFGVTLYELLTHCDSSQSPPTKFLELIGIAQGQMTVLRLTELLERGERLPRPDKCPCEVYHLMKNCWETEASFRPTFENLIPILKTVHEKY

| SMILES | inhibition at 10 µM (Tyk2 kinase domain (DH1); compound at 10 μM, ATP 10 μM) | Kd [1] | inhibition at 10 µM (JAK2 kinase domain (JH1); compound at 10 μM, ATP 10 μM) | other results |
| --- | --- | --- | --- | --- |
| CNc1cc(Nc2cccnc2OC)nc2c(C(=O)NC3CC(F)(F)C3)cnn12 [I-338, N-(3,3-difluorocyclobutyl)-5-((2-methoxypyridin-3-yl)amino)-7-(methylamino)pyrazolo[1,5-a]pyrimidine-3-carboxamide] | < 50% | < 0.2 nM | < 50% |  |
| CNc1cc(Nc2cccn([C@H]3CC[C@@H]3O)c2=O)nc2c(C(=O)NC3CC3)cnn12 [I-801] | < 50% | 0.2 to 1 nM | < 50% |  |
| CNc1cc(Nc2cccn3cnnc23)nc2c(C(=O)NC3CC3)cnn12 [I-659] | < 50% | < 0.2 nM | < 50% |  |
| CNc1cc(Nc2cccn([C@H]3CC[C@H]3O)c2=O)nc2c(C(=O)NC3CC3)cnn12 [I-956] |  | < 0.2 nM |  | Tyk2 JH1% Inhibition @ 10 μM (Tyk2 kinase domain (DH1); 10 μM compound, 10 μM ATP): A (percent inhibition at 10 μM lower than 50); JAK2 JH1% Inhibition @ 10 μM (JAK2 kinase domain (JH1); 10 μM compound, 10 μM ATP): A (percent inhibition at 10 μM lower than 50) |
| COc1ncccc1Nc1cc(NC2CC2)n2ncc(C(=O)N[C@@H]3C[C@@H]3F)c2n1 [I-337, 7-(cyclopropylamino)-N-((1R,2S)-2-fluorocyclopropyl)-5-((2-methoxypyridin-3-yl)amino)pyrazolo[1,5-a]pyrimidine-3-carboxamide] | < 50% | 0.2 to 1 nM | < 50% |  |
| CNc1cc(Nc2cccn(-c3ccn(C4CC4)n3)c2=O)nc2c(C(N)=O)cnn12 [I-20] | < 50% | < 0.2 nM | < 50% |  |
| CCOc1ccc(-n2cccc(Nc3cc(NC)n4ncc(C(=O)NC5CC5)c4n3)c2=O)nn1 [I-118] | < 50% | 0.2 to 1 nM | < 50% |  |
| NC(=O)c1cnn2c(N)cc(Nc3cccn(-c4ccc(F)cn4)c3=O)nc12 [I-52] | < 50% | 0.2 to 1 nM | < 50% |  |
| CNc1cc(Nc2cccnc2OC2COC2)nc2c(C(=O)NC3CC3)cnn12 [I-228] | < 50% | 1 to 10 nM | < 50% |  |
| CNc1cc(Nc2cccn([C@H]3CC[C@H](OC)CC3)c2=O)nc2c(C(=O)NC[C@@H](C)CO)cnn12 [I-830] |  | < 0.2 nM |  | inhibition at 10 µM (Tyk2 kinase domain (DH1); 10 μM compound, 10 μM ATP): < 50%; inhibition at 10 µM (JAK2 kinase domain (JH1); 10 μM compound, 10 μM ATP): < 50% |
| CNc1cc(Nc2cccn([C@@H]3CCOC[C@@H]3OC)c2=O)nc2c(C(=O)NC3CC3)cnn12 [I-594] |  | 0.2 to 1 nM |  | Tyk2 JH1% Inhibition @ 10 μM (Tyk2 kinase domain (DH1); compound at 10 μM, ATP 10 μM): A (percent inhibition at 10 μM lower than 50); JAK2 JH1% Inhibition @ 10 μM (JAK2 kinase domain (JH1); compound at 10 μM, ATP 10 μM): A (percent inhibition at 10 μM lower than 50) |
| Cc1cc(Nc2cc(N)n3ncc(C(N)=O)c3n2)c(=O)n(-c2cnn(C)c2)c1 [I-32] | < 50% | 0.2 to 1 nM | < 50% |  |
| CNc1cc(Nc2cc(C)cn(-c3ccn(C)n3)c2=O)nc2c(C(=O)NC3CC3)cnn12 [I-271] | < 50% | 0.2 to 1 nM | < 50% |  |
| CNc1cc(Nc2cccn(C[C@H]3CCCCO3)c2=O)nc2c(C(=O)NC3CC3)cnn12 [I-412] | < 50% | 0.2 to 1 nM | < 50% |  |
| CNc1cc(-c2cn(CCN3CCN(C)CC3)c3ncccc23)nc2c(C(=O)N[C@H]3CC[C@@H]3OC)cnn12 (stereo in doubt) [I-885, N-(2-methoxycyclobutyl)-7-(methylamino)-5-(1-(2-(4-methylpiperazin-1-yl)ethyl)-1H-pyrrolo[2,3-b]pyridine-3-yl)pyrazolo[1,5-a]pyrimidine-3-carboxamide] |  | < 0.2 nM |  | inhibition at 10 µM (Tyk2 kinase domain (DH1); 10 μM compound, 10 μM ATP): < 50%; inhibition at 10 µM (JAK2 kinase domain (JH1); 10 μM compound, 10 μM ATP): < 50% |
| CO[C@H]1C[C@@H](Oc2ncc(Cl)cc2Nc2cc(N)n3ncc(C(N)=O)c3n2)C1 [I-97] | < 50% | 1 to 10 nM | < 50% |  |
| CNc1cc(Nc2cccn([C@H]3CC[C@H](O)CC3)c2=O)nc2c(C(=O)NC3CC3)cnn12 [I-167] | < 50% | < 0.2 nM | < 50% |  |
| CNc1cc(Nc2cccc3ocnc23)nc2c(C(=O)N[C@H]3CC[C@@H]3OC)cnn12 [I-1115] |  | 1 to 10 nM |  | inhibition at 10 µM (Tyk2 kinase domain (DH1); 10 μM compound, 10 μM ATP): < 50%; inhibition at 10 µM (JAK2 kinase domain (JH1); 10 μM compound, 10 μM ATP): < 50% |

— patent US10508120B2, “TYK2 inhibitors and uses thereof” (Nimbus Lakshmi, Inc., priority 2017, dated 2019)
